From the supplement of paper PMC7840683
Counter-ions that a name gives are not always drawn. ± gives the standard deviation of the averaged measurements.

Tested on: HepaRG
Assay: LDH release cytotoxicity, % of total lysis control; higher = more cytotoxic
Settings: 48 h
Procedure, shortened: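 Single-lot HepaRG cells on collagen I-coated 96-well plates were exposed for 48 h in duplicate, in serum-free induction medium with 0.5% DMSO, to eight-point half-log series (test chemicals top 100 µM). Total lysis wells received 0.1% Triton X, and LDH leakage into 50 µL spent medium was read as resorufin fluorescence (CytoTox-ONE, Tecan Safire). Percent cytotoxicity was normalized to on-plate vehicle and total lysis controls and averaged over the duplicates.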

Structure (SMILES) | LDH release cytotoxicity (0.03162 µM) | LDH release cytotoxicity (0.1 µM) | LDH release cytotoxicity (0.3162278 µM) | LDH release cytotoxicity (1 µM) | LDH release cytotoxicity (3.16228 µM) | LDH release cytotoxicity (10 µM) | LDH release cytotoxicity (31.6228 µM) | LDH release cytotoxicity (100 µM) | other results
O=P1(N(CCCl)CCCl)NCCCO1 (stereo not given) [Cyclophosphamide monohydrate] | -1.01 ± 0.51% | -1.29 ± 0.25% | -1.53 ± 0.08% | -1.41 ± 0.039% | -1.5 ± 0.48% | -0.484 ± 0.23% | -0.76 ± 0.39% | 1.23 ± 0.55% | –
CC1(C)C(C=C(Cl)Cl)C1C(=O)OC(C#N)c1ccc(F)c(Oc2ccccc2)c1 (stereo not given) [Cyfluthrin] | – | -1.05 ± 0.37% | – | -1.61 ± 2.3% | -1.18 ± 0.56% | -0.972 ± 1.4% | -0.561 ± 1.3% | -0.122 ± 0.2% | LDH release cytotoxicity (0.031623 µM): 0.499 ± 1.5%; LDH release cytotoxicity (0.316228 µM): -1.18 ± 2.4%
CCCCOC(=O)C(C)Oc1ccc(Oc2ccc(C#N)cc2F)cc1 (stereo not given) [Cyhalofop-butyl] | – | – | – | – | – | – | – | – | LDH release cytotoxicity (0.0314647 µM): -1.16 ± 0.16%; LDH release cytotoxicity (0.0995 µM): -1.07 ± 0.88%; LDH release cytotoxicity (0.3146466 µM): -0.775 ± 0.25%; LDH release cytotoxicity (0.995 µM): -1.29 ± 0.31%; LDH release cytotoxicity (3.14647 µM): -0.485 ± 0.35%; LDH release cytotoxicity (9.95 µM): 0.552 ± 1.1%; LDH release cytotoxicity (31.4647 µM): -0.564 ± 0.059%; LDH release cytotoxicity (99.5 µM): 0.894 ± 1%
CCNC(=O)NC(=O)C(C#N)=NOC [Cymoxanil] | -0.835 ± 0.83% | -1.41 ± 0.052% | -2 ± 0.79% | -1.41 ± 0.59% | -2.17 ± 0.8% | -0.806 ± 1.1% | -0.354 ± 1% | 1.89 ± 2.3% | –
CC1(C)C(C=C(Cl)Cl)C1C(=O)OC(C#N)c1cccc(Oc2ccccc2)c1 (stereo not given) [Cypermethrin] | -0.819 ± 0.38% | -1.77 ± 0.13% | -1.92 ± 0.05% | -2.15 ± 0.89% | -1.45 ± 0.7% | -1.44 ± 0.55% | -0.803 ± 0.26% | -0.801 ± 0.4% | –
CC(C1CC1)C(O)(Cn1cncn1)c1ccc(Cl)cc1 (stereo not given) [Cyproconazole] | – | – | – | – | – | – | – | – | LDH release cytotoxicity (0.0314647 µM): -2.83 ± 0.84%; LDH release cytotoxicity (0.0995 µM): -2.41 ± 1.4%; LDH release cytotoxicity (0.3146466 µM): -3.23 ± 0.48%; LDH release cytotoxicity (0.995 µM): -3.32 ± 0.63%; LDH release cytotoxicity (3.14647 µM): -3.1 ± 0.6%; LDH release cytotoxicity (9.95 µM): -2.59 ± 0.26%; LDH release cytotoxicity (31.4647 µM): -2.12 ± 1.1%; LDH release cytotoxicity (99.5 µM): 6.32 ± 1.1%
Cc1cc(C2CC2)nc(Nc2ccccc2)n1 [Cyprodinil] | -1.37 ± 0.96% | -0.753 ± 0.69% | -0.874 ± 1.2% | -1.16 ± 0.7% | -0.24 ± 0.55% | -0.264 ± 0.58% | 0.71 ± 0.5% | 11.3 ± 0.15% | –
CC(=O)OC1(C(C)=O)CCC2C3C=C(Cl)C4=CC(=O)C5CC5C4(C)C3CCC21C (stereo not given) [Cyproterone acetate] | -0.255 ± 0.092% | -1.64 ± 0.93% | -0.773 ± 0.19% | -0.77 ± 0.3% | -0.346 ± 0.2% | 0.58 ± 0.28% | 10.4 ± 0.73% | 46.5 ± 1.5% | –
Nc1nc(N)nc(NC2CC2)n1 [Cyromazine] | -1.4 ± 0.21% | -0.914 ± 1.1% | -0.958 ± 0.84% | -1.75 ± 0.58% | -1.74 ± 0.52% | -1.14 ± 0.16% | -1.52 ± 0.36% | 0.201 ± 0.23% | –
Nc1ccn(C2OC(CO)C(O)C2O)c(=O)n1 (stereo not given) [Cytarabine hydrochloride] | -0.941 ± 0.69% | -1.96 ± 0.65% | -0.891 ± 0.29% | -1.56 ± 0.86% | -0.827 ± 0.49% | 0.301 ± 1.5% | 1.76 ± 1.2% | 4.47 ± 2.3% | –
OC[C@@H](O)[C@@H](O)[C@H](O)[C@H](O)CO [D-Mannitol] | – | -2.88 ± 0.9% | – | -2.73 ± 0.41% | -2.39 ± 0.089% | -1.31 ± 0.43% | 0.669 ± 0.23% | 3.29 ± 0.076% | LDH release cytotoxicity (0.031623 µM): -0.135 ± 0.17%; LDH release cytotoxicity (0.316228 µM): -2.85 ± 0.69%
CCN(CC)C(=O)c1cccc(C)c1 [DEET] | – | – | – | – | – | – | – | – | LDH release cytotoxicity (0.03305 µM): -1.66 ± 0.043%; LDH release cytotoxicity (0.1045 µM): -2.06 ± 0.73%; LDH release cytotoxicity (0.330458 µM): -2.58 ± 0.48%; LDH release cytotoxicity (1.045 µM): -2.44 ± 0.8%; LDH release cytotoxicity (3.30458 µM): -2.59 ± 0.4%; LDH release cytotoxicity (10.45 µM): -2.53 ± 0.61%; LDH release cytotoxicity (33.0458 µM): -1.85 ± 1%; LDH release cytotoxicity (104.5 µM): -1.16 ± 0.13%
CC(Cl)(Cl)C(=O)O [Dalapon] | -1.01 ± 0.44% | -0.953 ± 0.67% | -0.84 ± 0.36% | -0.409 ± 0.058% | -0.505 ± 0.31% | 0.644 ± 1.2% | 1.01 ± 1.3% | 0.962 ± 1.9% | –
CN(C)NC(=O)CCC(=O)O [Daminozide] | -1.88 ± 0.43% | -1.67 ± 0.13% | -1.27 ± 0.85% | -0.212 ± 2.1% | -1.11 ± 0.04% | -0.0868 ± 1% | 0.553 ± 0.48% | 1.58 ± 0.84% | –
Nc1ccc(S(=O)(=O)c2ccc(N)cc2)cc1 [Dapsone] | -1.24 ± 0.6% | -0.379 ± 0.2% | -1.16 ± 0.45% | -0.536 ± 0.3% | 0.1 ± 0.69% | -0.392 ± 0.19% | 0.105 ± 1% | 1.63 ± 0.23% | –
CC(C)(C)c1cc(C=C2SC(=N)NC2=O)cc(C(C)(C)C)c1O [Darbufelone mesylate] | -2.49 ± 0.67% | -3.41 ± 0.28% | -3.09 ± 0.45% | -3.16 ± 0.65% | -3.23 ± 0.27% | -3.27 ± 0.089% | -2.49 ± 1% | -1.56 ± 0.092% | –
CN1CSC(=S)N(C)C1 [Dazomet] | -1.04 ± 1.2% | -0.753 ± 0.32% | -1.34 ± 1.3% | -1.86 ± 0.33% | -2.37 ± 0.28% | -3.44 ± 0.043% | 13.1 ± 2.2% | 78 ± 4.3% | –
CCCCCCCCCC [Decane] | – | -2.33 ± 0.84% | – | -2.73 ± 0.13% | -3.64 ± 0.16% | -2.67 ± 0.26% | -1.91 ± 0.28% | 0.361 ± 0.12% | LDH release cytotoxicity (0.031623 µM): -0.647 ± 0.6%; LDH release cytotoxicity (0.316228 µM): -2.41 ± 0.87%
CCCCCCCCCC(=O)O [Decanoic acid] | -1.36 ± 0.57% | -2.46 ± 0.9% | -1.69 ± 0.25% | -1.7 ± 0.25% | -1.42 ± 0.15% | -1.16 ± 0.079% | -0.917 ± 0.64% | -0.408 ± 0.48% | –
CCNc1nc(N)nc(Cl)n1 [Deisopropylatrazine] | -0.429 ± 0.17% | -1.18 ± 0.59% | -0.471 ± 0.66% | -1.46 ± 0.071% | -0.314 ± 0.35% | -0.765 ± 0.36% | -0.375 ± 0.045% | 0.373 ± 0.5% | –
